What is called melting point is the temperature of the solid-liquid transition.

Consider one molecule from patent US20040023991A1, “Use of pyrazolo[4,3-d]pyrimidines” (priority 2000, published 2004).

`CCCc1nn(C)c2c(NCc3ccc(OC)c(Cl)c3)nc(CCC(=O)O)nc12` [Example 2, 3-[7-(3-chloro-4-methoxybenzylamino)-1-methyl-3-propyl-1H-pyrazolo[4,3-d]pyrimidin-5-yl]propionic acid]: the melting point was 178 °C.
